Test results published in BindingDB's records for doi:10.1021/jm0201924 (Senju Pharmaceutical, 2003).
pIC50: −log10 of the molar value.

Target: Calpain-1 (Sus scrofa)
Test: In vitro inhibition of porcine mu-calpain.

## CC(C)[C@H](NS(=O)(=O)c1ccc(F)cc1)C(=O)N[C@@H](C=O)Cc1ccccc1 [2-(4-Fluoro-benzenesulfonylamino)-N-(1-formyl-2-phenyl-ethyl)-3-methyl-butyramide]
  pIC50: 7.57

## Cc1ccc(S(=O)(=O)N[C@H](C(=O)N[C@@H](C=O)CC(C)C)C(C)C)cc1 [N-(1-Formyl-3-methyl-butyl)-3-methyl-2-(toluene-4-sulfonylamino)-butyramide]
  pIC50: 7.55

## CC(C)[C@H](NS(=O)(=O)c1ccc2ccccc2c1)C(=O)N[C@@H](C=O)Cc1ccccc1 [N-(1-Formyl-2-phenyl-ethyl)-3-methyl-2-(naphthalene-2-sulfonylamino)-butyramide]
  pIC50: 7.85

## Cc1ccc(S(=O)(=O)N[C@H](C(=O)N[C@@H](C=O)Cc2ccccc2)C(C)C)cc1 [N-(1-Formyl-2-phenyl-ethyl)-3-methyl-2-(toluene-4-sulfonylamino)-butyramide]
  pIC50: 7.74

## CC(C)C[C@H](C=O)NC(=O)[C@@H](NS(=O)(=O)c1ccc2ccccc2c1)C(C)C [N-(1-Formyl-3-methyl-butyl)-3-methyl-2-(naphthalene-2-sulfonylamino)-butyramide]
  pIC50: 8.00

## CC(C)C[C@H](C=O)NC(=O)[C@@H](NS(C)(=O)=O)C(C)C [N-(1-Formyl-3-methyl-butyl)-2-methanesulfonylamino-3-methyl-butyramide]
  pIC50: 6.08

## CC(C)[C@H](NS(=O)(=O)c1ccc(Cl)cc1)C(=O)N[C@@H](C=O)Cc1c[nH]c2ccccc12 [2-(4-Chloro-benzenesulfonylamino)-N-[1-formyl-2-(1H-indol-3-yl)-ethyl]-3-methyl-butyramide]
  pIC50: 7.89

## CC(C)[C@H](NS(=O)(=O)c1ccc(F)cc1)C(=O)N[C@@H](C=O)Cc1c[nH]c2ccccc12 [2-(4-Fluoro-benzenesulfonylamino)-N-[1-formyl-2-(1H-indol-3-yl)-ethyl]-3-methyl-butyramide]
  pIC50: 7.64

## CC(C)C[C@H](C=O)NC(=O)[C@@H](NS(=O)(=O)c1ccc(Cl)cc1)C(C)C [2-(4-Chloro-benzenesulfonylamino)-N-(1-formyl-3-methyl-butyl)-3-methyl-butyramide]
  pIC50: 7.51

## CC(C)C[C@H](C=O)NC(=O)[C@H](C(C)C)N(C)S(=O)(=O)c1ccc(F)cc1 [2-[(4-Fluoro-benzenesulfonyl)-methyl-amino]-N-(1-formyl-3-methyl-butyl)-3-methyl-butyramide]
  pIC50: 4.68

## CC(C)[C@H](NS(=O)(=O)c1ccc(F)cc1)C(=O)N[C@H](C)C=O [2-(4-Fluoro-benzenesulfonylamino)-3-methyl-N-(1-methyl-2-oxo-ethyl)-butyramide]
  pIC50: 6.20

## CC(C)[C@H](NS(=O)(=O)c1ccc(Cl)cc1)C(=O)N[C@@H](C=O)Cc1ccccc1 [2-(4-Chloro-benzenesulfonylamino)-N-(1-formyl-2-phenyl-ethyl)-3-methyl-butyramide]
  pIC50: 7.85
